Assay results reported in patent publication EP0330025A2, “Antidiabetic composition comprising isocarbacyclin derivative” (TEIJIN LIMITED, priority 1988, dated 1989).

How the values were obtained:
[1] = test system: GK rats with spontaneous diabetes; test: Test Example 1: measurement of nerve conduction velocity in GK rats with spontaneous diabetes; type: in vivo; conditions: for Nerve conduction velocity (m/sec) Before administration: baseline before oral administration
Text: A test substance, (17S)-17,20-dimethylisocarbacyclin [=(17S)-17,20-dimethyl-9(0)-methano-Δ^6(9α)-prostaglandin I₁] was used to observe any improvement effect on nervous disorder of GK rats with spontaneous diabetes.
(§1) At the test method was to use four groups, i.e., one group of Wistar rats as control, two groups of GK rats with spontaneous diabetes administered by the test substance and one group of the GK rats not administered by the test substance. Before testing, glucose tolerance and nerve conduction velocity were measured. Then the test substance was orally given for 4 weeks (one group at a dose of 30µg/-Kg/day and another group at a dose of 300µg/Kg/day), and the animals were then checked for glucose tolerance and nerve conduction velocity.

[2] = test system: GK rats with spontaneous diabetes; test: Test Example 2: measurement of nerve conduction velocity in GK rats with spontaneous diabetes; type: in vivo; conditions: for Nerve conduction velocity (m/sec) Before administration / Nerve conduction velocity (m/sec) 4 weeks later: GK rats; for Nerve conduction velocity (m/sec) Before administration: baseline before oral administration
Procedure: as §1
In similar way to Test Example 1, variations in nerve conduction velocity were measured for (17S)-17,20-dimethylisocarbacyclin methyl ester [=(17S)-17,20-dimethyl-9(0)-methano-Δ^6(9α)-prostaglandin I₁ methyl ester as test substance.

[3] = 300µg/Kg/day orally for 4 weeks

| Compound | Nerve conduction velocity (m/sec) Before administration ([1]; 30µg/Kg/day group) | Nerve conduction velocity (m/sec) 4 weeks later ([1]; 30µg/Kg/day orally for 4 weeks) | Nerve conduction velocity (m/sec) Before administration ([1]; 300µg/Kg/day group) | Nerve conduction velocity (m/sec) 4 weeks later [1, 3] | Nerve conduction velocity (m/sec) Before administration ([2]; 30µg/Kg/day group) | Nerve conduction velocity (m/sec) 4 weeks later ([2]; 30µg/Kg/day orally for 4 weeks) | Nerve conduction velocity (m/sec) Before administration ([2]; 300µg/Kg/day group) | Nerve conduction velocity (m/sec) 4 weeks later [2, 3] | Improvements on nerve conduction velocity ([2]; both groups, 30µg/Kg/day and 300µg/Kg/day, after 4 weeks, in comparison with the control group of GK rats) |
| --- | --- | --- | --- | --- | --- | --- | --- | --- | --- |
| CCCC[C@H](C)C[C@H](O)/C=C/[C@@H]1[C@H]2CC(CCCCC(=O)O)=C[C@H]2C[C@H]1O [(17S)-17,20-dimethylisocarbacyclin, (17S)-17,20-dimethyl-9(0)-methano-Δ^6(9α)-prostaglandin I₁] | 33.7 ± 1.2 m/sec | 40.5 ± 0.8 m/sec | 35.0 ± 0.8 m/sec | 42.2 ± 0.9 m/sec | – | – | – | – | – |
| CCCC[C@H](C)C[C@H](O)/C=C/[C@@H]1[C@H]2CC(CCCCC(=O)OC)=C[C@H]2C[C@H]1O [(17S)-17,20-dimethyl-9(0)-methano-Δ^6(9α)-prostaglandin I₁ methyl ester] | – | – | – | – | 30.9 ± 1.0 m/sec | 38.1 ± 1.0 m/sec | 32.4 ± 0.7 m/sec | 37.5 ± 1.4 m/sec | Improvements on nerve conduction velocity were observed |
